Converted amounts (≈) assume the structure as drawn. Like-named read-outs stand apart in the source and are kept apart here. Some results are limits rather than exact numbers.

The MIC is the lowest concentration that inhibits growth of the organism. Read a high MIC as a need for much substance.

Test [1] has as its system Escherichia coli. Briefly: MIC, broth two-fold serial dilution test, Escherichia coli (Ecol). Format: cell-based. The text has this:
(§1) The compounds identified with a prime (') were the non-iodo analogues of the invention compounds, i.e., the compounds of formula III or IV. All data are reported in ppm of active ingredient required to control the respective organism. The indication "No In." means that the compound had no inhibitory activity at 500 ppm which was the maximum tested, and so if the "No In." compound were active, the minimum inhibitory concentration would be above 500 ppm. The comparative tests were not run side-by-side, but were run on different days using the same methods. […] A minimum inhibitory concentration (MIC) value is obtained using a broth, two-fold serial dilution test performed as follows: […] A volume of the stock solution is dispensed into culture media to give an initial starting test concentration of the compound of 500 ppm or 250 ppm. When the test is ready to be done, each vessel in the dilution series, except the first vessel, contains an equal volume of compound free broth. The first vessel contains twice the volume of broth with the starting concentration of test compound. One half of the broth from the first vessel is transferred to the second vessel. After being mixed, one half the resulting volume is removed from the second vessel and transferred to the third vessel. […] Each vessel is then inoculated with a cell suspension of the appropriate test organism. Bacteria are grown in broth and fungi on agar […] is grown in cooling tower media for a time and at a temperature appropriate to the species being tested. At the end of the growth period, the broth is vortexed to disperse the cells. In the case of fungi, the spores are harvested by pipetting water onto the slant and dislodging the spores with a sterile loop. The cell/spore suspension is standardized by controlling incubation time, temperature, and the volume of the diluent. The suspension is then used to inoculate the vessels containing the broth compound. The vessels are then incubated at the appropriate temperature. After the incubation, the vessels are examined for growth/no growth. The MIC is defined as the lowest concentration of compound that results in complete inhibition of growth of the test organism. BACTERIA: Pseudomonas fluorescens (Ps.fl), gram negative; Pseudomonas aerugenosa (Ps.ae), gram negative; Escherichia coli (E.c), gram negative; and Staphylococcus aureus (S.a), gram positive.

Test [2] deals with Pellicularia filamentosa (f. sp. sasiki). Put plainly: whole plant or invertebrate. Format: in vivo. As to conditions: 120 h; read-out: % Control RSB.
For test [3], the system named is Aspergillus niger. Put plainly: MIC, broth two-fold serial dilution test, Aspergillus niger (Anig). As to conditions: TSB. Format: cell-based.
Text: as §1, with “INDUSTRIAL FUNGI: Aspergillus niger (A.n); Aureobasidium pullulans (A.p)” for “BACTERIA: Pseudomonas fluorescens (Ps.fl), gram negative; Pseudomonas aerugenosa (Ps.ae), gram negative; Escherichia coli (E.c), gram negative; and Staphylococcus aureus (S.a), gram positive.”

For test [4], the system named is Pseudoperonospora cubensis. Briefly: whole plant or invertebrate. As to conditions: for percent disease control CDM: in vivo. Type of test: in vivo.
For test [5], the system named is Piricularia oryzae. Put plainly: whole plant or invertebrate. The note with it: Pyricularia oryzae, read-out: % Control RB. Format: in vivo.
For test [6], the system named is Staphylococcus aureus. Briefly: MIC, broth two-fold serial dilution test, Staphylococcus aureus (Saur). Format: cell-based.
Text: as §1

Test [7] relates to Phytophthora infestans. Briefly: whole plant or invertebrate. Format: in vivo. The note with it: for pest or weed control at 50 ppm: read-out: % Control TLB, secondary greenhouse test (Table 5), 50 ppm; for percent disease control TLB: advanced greenhouse test (Table 6), 0.25 kg a.i./ha.
The test system of test [8] is Septoria nodorum. As to conditions: in vivo.
Test [9] deals with TLB, CDM, WLR, SNW, WPM. The note with it: in vivo.
Test [10] has as its system Puccinia recondita (f. sp. tritici Races PKB and PLD). Put plainly: whole plant or invertebrate. As to conditions: for percent disease control WLR: in vivo. Format: in vivo.
The subject of test [11] is Erysiphe graminis (f. sp. tritici). Briefly: whole plant or invertebrate. Type of test: in vivo. As to conditions: for percent disease control WPM: in vivo.
Test [12] concerns Pseudomonas aerugenosa. Briefly: MIC, broth two-fold serial dilution test, Pseudomonas aerugenosa (Psae). Format: cell-based.
Text: as §1

The subject of test [13] is Cochliobolus sativus. Briefly: In-vitro plant disease test, HEL. As to conditions: Bipolaris sorokiniana, read-out: % Control HEL. Format: cell-based.
Test [14] has as its system Xanthomonas campestris. Briefly: microbe, parasite or virus in culture. Type of test: cell-based. As to conditions: read-out: % Control XAN.
In test [15] the test system is Piricularia oryzae. Briefly: microbe, parasite or virus in culture. Format: cell-based. The note with it: read-out: % Control PIR.
Test [16] has as its system Rhizoctonia solani. Briefly: microbe, parasite or virus in culture. Format: cell-based. The note with it: read-out: % Control RHI.
Test [17] has as its system Fusarium roseum. Briefly: microbe, parasite or virus in culture. The note with it: Fusarium sambucinum, read-out: % Control FUS.
Text: FUS Fusarium roseum (Ascomycete)
Transfers in steps 1 and 2 are done in a laminar flow hood. All 8 fungi and the bacterium used in this test are transferred and maintained on potato dextrose agar plates each week (2 plates/organism). Organisms are used when they are the following ages: a. […] Culture flasks are inoculated with 6 mycelial plugs each (except for Pythium which is inoculated with only 3 plugs) taken from PDA plates. All liquid shaker cultures are used after 2 days growth.
PYU, PHY, RHI and FUS cultures are ground up (2-3 5 second bursts in a blender) and all but Pythium and Phytophthora are filtered through a double layer of sterile cheesecloth to remove large mycelial clumps. Ten ml of the culture solutions of R. solani and F. roseum are added to 90 ml of YSB and 10 ml of the P. capsici is added to 90 ml ASB. […] The inoculum mixtures are placed in microtiter plates using a 12-tipped pipet. 175 μl (single dose) or 100 μl (dose-response test) of inoculum broth is placed in each well of the microtiter plates. The plates with inoculated media are placed in the refrigerator overnight. There are two replications per treatment.
This operation is carried out in a chemistry hood. Six microtiter plates have 245 microliters of sterile water added to their wells ahead of time. 10 Mg a.i. of the compounds are placed in 1 ml 1:1 acetone:methanol. 5 Microliters of this solution (6 microliters in the case of the 50 ppm dose) is pipetted into the microtiter plates containing the sterile water according to the grid. There are 45 compounds and 3 scattered control treatments per plate. There are 2 replicates per treatment. 25 Microliters of solution is transferred to the inoculated plates with a 96 well replicator. The replicator is flame sterilized with alcohol, rinsed with sterile water, and blotted on sterile paper towels between each transfer.
In test [18] the test system is Pythium ultimum. Put plainly: In-vitro plant disease test, PYU. Type of test: cell-based. The note with it: Globisporangium ultimum, read-out: % Control PYU.
Test [19] relates to Phytophthora capsici. Put plainly: In-vitro plant disease test, PHY. Format: cell-based. As to conditions: read-out: % Control PHY.
The mark [20] stands for this setting: Pseudoperonospora cubensis, in Cucumis sativus, 168 h, read-out: % Control CDM.
The mark [21] stands for this setting: Phytophthora infestans, in Solanum lycopersicum, 96 h, read-out: % Control TLB, greenhouse test (Table 4), 200 ppm.
The mark [22] stands for this setting: Phytophthora infestans, in Solanum lycopersicum, 96 h.
Setting [23] is: Phytophthora infestans, in Solanum lycopersicum, 96 h, read-out: % Control TLB, secondary greenhouse test (Table 5), 200 ppm.
Setting [24] is: Puccinia recondita, 240 h, read-out: % Control WLR.
Where [25] appears, read: Blumeria graminis, read-out: % Control WPM.

In the case of `CC1C(=O)N(c2ccc(F)cc2)C(=O)N1CC#CI` (stereo not drawn) [Compound 3, 1-(3-iodo-2-propynyl)-3-(4-fiuorophenyl)-5-methylhydantoin], the MIC in test [1] (M9G) was more than 500 µg/mL; in [1] (TSB), 250 µg/mL (≈ 672 µM); in test [3], 4 µg/mL (≈ 10.7 µM); in [6] (M9G), more than 500 µg/mL; in test [6] (TSB) it was more than 500 µg/mL; in test [12] (M9G) it was more than 500 µg/mL. Besides, the MIC in test [12] (TSB) is more than 500 µg/mL. The pest or weed control at 50 ppm was 0% in [2]; 50% in test [5]; 0% in [7] (setting [22]); 0% in [10] (setting [24]); 50% in [11] (setting [25]). Further, the pest or weed control at 200 ppm turned out to be 0% in test [2]; 50% in [4] (setting [20]); 50% in test [5]; 0% in test [7] (setting [21]); 95% in [7] (setting [23]); 95% in test [10] (setting [24]). Besides, the pest or weed control at 200 ppm in test [11] (setting [25]) turned out to be 40%. Further, the “percent disease control CDM” value in test [4] came out at 100.0%. In addition, the “percent disease control TLB” value in [7] turned out to be 52.0%. The “percent disease control SNW” value in test [8] is 47.0%. The “percent disease control Average” value in test [9] is recorded as 67.8%. The “percent disease control WLR” value in [10] was 75.0%. In addition, in test [11], the “percent disease control WPM” value worked out at 65.0%.

For `O=C1N(c2cc(Cl)cc(Cl)c2)C(=O)C2(CCCC2)N1CC#CI` [Compound 4, 1-(3-iodo-2-propynyl)-3-(3,5-dichlorophenyl)-5,5-spirocyclopentane-hydantoin], the MIC in test [1] (M9G) was more than 500 µg/mL; in test [1] (TSB) it was more than 500 µg/mL; in [3] it was 16 µg/mL (≈ 34.5 µM); in [6] (M9G) it was more than 500 µg/mL; in test [6] (TSB), more than 500 µg/mL; in [12] (M9G) it was more than 500 µg/mL. This compound displayed an MIC in [12] (TSB) of more than 500 µg/mL. For the same compound, the pest or weed control at 50 ppm in [2] is 50%; in [5], 50%; in test [7] (setting [22]), 0%; in test [10] (setting [24]), 0%; in [11] (setting [25]), 0%. The pest or weed control at 200 ppm amounted to 50% in [2]; 50% in test [4] (setting [20]); 50% in test [5]; 95% in [7] (setting [21]); 0% in [7] (setting [23]); 0% in test [10] (setting [24]). Besides, the pest or weed control at 200 ppm in [11] (setting [25]) worked out at 25%. Further, in [4], the “percent disease control CDM” value was found to be 100.0%. In test [7], the “percent disease control TLB” value was found to be 30.0%. The “percent disease control SNW” value in test [8] is listed as 53.0%. Also, in test [9], the “percent disease control Average” value worked out at 65.2%. The “percent disease control WLR” value in test [10] is given as 80.0%. Besides, the “percent disease control WPM” value in test [11] is reported as 63.0%.

For `O=C1N(c2cc(Cl)cc(Cl)c2)C(=O)C2(CCCCC2)N1CC#CI` [Compound 5, 1-(3-iodo-2-propynyl)-3-(3,5-dichlorophenyl)-5,5-spirocyclohexane-hydantoin], the MIC in [1] (M9G), in [1] (TSB), in test [3], in [6] (M9G), in test [6] (TSB) and in [12] (M9G) was more than 500 µg/mL throughout. Besides, the MIC in test [12] (TSB) was more than 500 µg/mL. The pest or weed control at 50 ppm in test [2] was found to be 25%; in test [5], 50%; in test [7] (setting [22]), 0%; in test [10] (setting [24]), 0%; in [11] (setting [25]) it was 50%. Also, the pest or weed control at 200 ppm in test [4] (setting [20]) stood at 40%; in [7] (setting [21]) it was 95%; in test [10] (setting [24]), 0%; in test [11] (setting [25]) it was 0%. For the same compound, the “percent disease control CDM” value in test [4] is listed as 100.0%. In addition, the “percent disease control TLB” value in test [7] was 28.0%. Also, the “percent disease control SNW” value in test [8] amounted to 72.0%. The “percent disease control Average” value in test [9] is reported as 69.4%. Also, the “percent disease control WLR” value in [10] is listed as 80.0%. Besides, the “percent disease control WPM” value in [11] was found to be 67.0%.

Consider `CC1(C)C(=O)N(CC#CI)C(=O)N1CC#CI` [Compound 11], for which the MIC in test [1] (M9G) is 64 µg/mL (≈ 140 µM); in test [3] it was less than 4 µg/mL; in test [6] (M9G) it was 32 µg/mL (≈ 70.2 µM); in [12] (M9G), 125 µg/mL (≈ 274 µM). The inhibition of growth at 25 ppm in [13] came to 90%; in test [14], 0%; in test [15], 100%; in [16], 100%; in test [17] it was 0%. Moreover, the inhibition of growth at 50 ppm in test [14] came to 0%; in test [15] it was 100%; in test [16], 100%; in test [17] it was 100%. Moreover, the pest or weed control at 100 ppm amounted to 100% in test [4] (setting [20]); 95% in [5]; 0% in test [7] (Phytophthora infestans, in Solanum lycopersicum, 96 h, read-out: % Control TLB, greenhouse test (Table 4), 100 ppm); 50% in test [10] (setting [24]); 85% in test [11] (setting [25]).

Consider `CC1(C)NC(=O)N(CC#CI)C1=O` [Compound 12], for which the MIC was 125 µg/mL (≈ 428 µM) in test [1] (M9G); 250 µg/mL (≈ 856 µM) in [1] (TSB); 8 µg/mL (≈ 27.4 µM) in test [3]; 125 µg/mL (≈ 428 µM) in [6] (M9G); 16 µg/mL (≈ 54.8 µM) in test [6] (TSB); 250 µg/mL (≈ 856 µM) in test [12] (M9G). The MIC in test [12] (TSB) is more than 500 µg/mL. For the same compound, the inhibition of growth at 25 ppm in test [14] turned out to be 0%; in [15], 90%; in test [16] it was 100%; in test [18] it was 100%; in [19], 100%; in test [17], 75%. The pest or weed control at 200 ppm in test [4] (setting [20]) was determined as 0%; in test [5], 95%; in test [7] (setting [21]) it was 0%; in test [10] (setting [24]), 25%; in test [11] (setting [25]) it was 0%.
